Here are results for three molecules from US7605137B2, “Combination therapy comprising cloretazine” (priority 2004, dated 2009).

In series [1] the test system is L1210 leukemia. Kind of series: In vivo antitumor activity of VNP40101M and AraC on ip L1210 leukemia (1×10^6 cells), survival. More on the design: species or system CD2F1 mice. Conditions: 1×10^6 L1210 cells ip; for Long-term Survivors (%): survival more than 60 days. The method, then: Eighty Female Balb/c×DBA/2 (CD2F1) mice were inoculated intraperitoneally (ip) on day 0 with 1×10^6 L1210 cells in 0.2 mL phosphate-buffered-saline (PBS). The mice were randomly divided into 6 groups; each group consisted of 10 mice. The animals were untreated or treated with a single bolus dose of VNP40101M at 5, or 10 mg/kg, ip, on day 1 with or without AraC (50 mg/kg, ip) on days 1, 3, 5, 7, and 9. Daring the experiments, mice were observed daily for survival. It was determined that mice that survive for more than 60 days after inoculation of L1210 cells might be regarded as long-term survivors. Kaplan-Meier plots were generated, and survival time of animals was analyzed using student T-test. Significance was defined as P<0.05.

The conditions of series [2]: cited from earlier work.
For series [3], the system named is human WiDr colon carcinoma. As to conditions: weekly IP, 10-60 mg/kg; cited from earlier work.
Series [4] relates to L1210 leukemia. Kind of series: In vitro cytotoxicity of VNP40101M and AraC, cell viability assay (mitochondrial oxidoreductase activity). Conditions: AraC and VNP40101M 0.75-6 uM. It is filed as cell-based, murine.
Procedure: The cytotoxicity of the combination of VNP40101M and Arac on L1210 leukemia was examined using a cell viability assay. Cells were exposed to VNP40101M, alone or in combination with various concentrations of AraC. After 72 hours, the remaining viable cells were quantified by measuring mitochondrial oxidoreductase activity. Concentrations of AraC and VNP40101M used were between 0.75 and 6 uM. Dose-effect analyses (combination index) showing combination effects of VNP40101M and AraC were analyzed.
The conditions of series [5]: cited from earlier work. This is another data set of the same source.
Series [6] deals with L1210 leukemia (10^6 tumor cells) resistant to BCNU, cyclophosphamide, or melphalan. Conditions: cited from earlier work.
Series [7] relates to L1210 leukemia. Kind of series: In vivo antitumor activity of VNP40101M and fludarabine on ip L1210 leukemia (3×10^6 cells), survival. As to conditions: 3×10^6 L1210 cells ip; for Long-term Survivors (%): survival more than 60 days. Further details: species or system CD2F1 mice. On the procedure: Eighty Female Balb/c×DBA/2 (CD2F1) mice are inoculated intraperitoneally (ip) on day 0 with 3×10^6 L1210 cells in 0.2 mL phosphate-buffered-saline (PBS). The mice are randomly divided into 6 groups; each group consists of 10 mice. The animals are untreated or treated with a single bolus dose of VNP40101M at 5, or 10 mg/kg, ip, on day 1 with or without fludarabine (70 mg/kg, ip) on multiple days between days 1 to 9. During the experiments, mice are observed daily for survival. It is determined that mice that survive for more than 60 days after inoculation of L1210 cells might be regarded as long-term survivors. Kaplan-Meier plots are generated, and survival time of animals is analyzed using student T-test. Significance is defined as P<0.05.

The conditions of series [8]: cited from earlier work. This is another data set of the same source.
The conditions of series [9]: cited from earlier work. This is another data set of the same source.
A further series relates to human U251 glioma. Conditions: 10 mg/kg q2d×11 or 20 mg/kg q4d×6 IP; tumors staged to ~300 mg; cited from earlier work.
In another series the test system is B16F10 melanoma. Conditions: weekly IP, 10-60 mg/kg; cited from earlier work.
Series [10] concerns intra-cranially implanted L1210 leukemia. As to conditions: cited from earlier work.
Series [11] relates to murine M109 lung carcinoma. Conditions: cited from earlier work.
The subject of series [12] is advanced hematologic malignancies. Conditions: cited from earlier work.
Series [13] concerns human HTB177 lung (H460) carcinoma. Conditions: weekly IP, 10-60 mg/kg; cited from earlier work.
The mark [14] stands for this setting: VNP40101M 5 mg/kg ip single bolus day 1.
The mark [15] stands for this setting: VNP40101M 10 mg/kg ip single bolus day 1.
Setting [16] is: single dose 80-100 mg/kg IP, tumor-bearing mice.

“Also recorded” adds a separate entry of the source. Read-outs that look alike come from different tables or passages of the source.

On to `Nc1ccn([C@@H]2O[C@H](CO)[C@@H](O)[C@@H]2O)c(=O)n1` [AraC, Cytarabine, reference compound], for which, in the series with L1210 leukemia [1] (AraC 50 mg/kg ip days 1, 3, 5, 7, 9), the “Long-term Survivors (%)” value was found to be 0%. In addition, in the series with L1210 leukemia [1] (AraC treatment control, 50 mg/kg ip days 1, 3, 5, 7, 9), the “Time to death of all animals” value is ≤ 30 days.
Take `CNC(=O)N(N(CCCl)S(C)(=O)=O)S(C)(=O)=O` [VNP40101M, 1,2-Bis(methylsulfonyl)-1-(2-chloroethyl)-2-(methylaminocarbonyl) hydrazine]: the Dose-limiting non-hematologic toxicities entry in series [2] (3-305 mg/m^2) was “No dose-limiting non-hematologic toxicities were observed”; in series [12] (through the dose of 708 mg/m^2), “no dose-limiting non-hematologic toxicities were observed”. For the same molecule, the “Maximum tolerated dose (MTD)” value in series [2] (IV infusion over 15-30 minutes every 4-6 weeks) was 305 mg/m^2. Moreover, the Platelet nadir in series [2] (MTD 305 mg/m^2) is 25 to 33 days. In addition, in series [2] (among seven patients treated at the MTD (305 mg/m^2)), the “Patients with grade 3 thrombocytopenia” value was “six”. Further, in series [2] (human, in vivo), the “Recovery of hematologic toxicities to ≦ grade 1” value is listed as 32-45 days. Also, in series [2] (patients treated at the MTD (305 mg/m^2)), the “Patients with ≧grade 2 granulocytopenia” value was “Five”. Besides, the Tumor growth result is reported as “significant delays in tumor growth” in [3]; “significant delays in tumor growth” in the series with B16F10 melanoma; “delayed tumor growth” in series [11] (10 mg/kg q2d×10 or 20 mg/kg q4d×5 IP, tumors staged to ~150 mg); “significant delays in tumor growth” in [13]. Besides, the “Combination effect with AraC on L1210 leukemia” value in the series with L1210 leukemia [4] was “worked synergistically with AraC”. Also, the “Long-term Survivors (%)” value is on record as 50% with L1210 leukemia [1] (setting [14]), 90% in the series with L1210 leukemia [1] (setting [15]), 0% in the series on L1210 leukemia [7] (setting [14]) and 40% with L1210 leukemia [7] (setting [15]). For the same molecule, the “Clinical signs or symptoms” value in [5] (3 mg/kg (18 mg/m^2) IV d×5, day 15) is given as “no clinical signs or symptoms”. Moreover, the “Rats with lung findings” value in series [5] (3 mg/kg IV d×5, day 29) is reported as 2/10. For the same molecule, in [5] (3 mg/kg IV d×5), the “Microscopic findings (lung)” value was “alveolar edema, congestion, alveolar histiocytosis, and vascular thrombi”. Further, in [5] (10 mg/kg (60 mg/m^2) d×5, day 15), the Gross necropsy findings entry was “few significant gross necropsy findings”. Moreover, the “Effects on serum chemistries” value in series [5] (10 mg/kg dose group, day 29) is “decreases in total protein and albumin”. Moreover, the “Animals with thoracic cavity fluid” value is listed as “approximately 50 % of animals” in series [5] (10 mg/kg d×5, sacrificed on day 29) and 6/6 in series [5] (10 mg/kg d×5, sacrificed on days 30/31). Further, the Myelosuppression result in series [5] (doses as high as 10 mg/kg d×5) was “not observed”. For the same molecule, the “Increase in life span compared to control mice” value in series [6] (6 mg/kg/d IP daily for 6 days (total dose 36 mg/kg)) was 333%. The Cure in series [6] (12-18 mg/kg/d IP daily for 6 days (total doses 72-108 mg/kg)) was 100 % of animals. In addition, the Delayed toxic deaths entry in [6] (d×6 schedule, total doses up to 108 mg/kg) is “not observed”. Moreover, the “Myelosuppression at doses producing long-term survival” value in [6] (non-tumor-bearing mice) is reported as “only modestly myelosuppressive”. Moreover, in [6] (setting [16]), the “Time of toxic deaths after treatment” value was > 50 days. The “Toxicity of higher single doses” value in series [6] (setting [16]) is “signs of a wasting condition and death in some animals; also recorded: signs of a wasting condition and deaths”. Besides, in [6] (single dose IP 24 hours after tumor inoculation, 20-60 mg/kg (60-180 mg/m^2)), the “Cure (survival ≧60 days)” value is reported as 100 % of mice. For the same molecule, the “Clinical signs and symptoms” value in series [8] (1 mg/kg (20 mg/m^2) IV d×5) is “minimal clinical signs and symptoms”. Moreover, the Leukopenia entry in series [8] (1 mg/kg IV d×5, recovered to baseline by day 15) was “mild leukopenia on day 8”; in [8] (3 mg/kg IV d×5), “marked leukopenia by day 8”. The Clinical signs entry in series [8] (3 mg/kg IV d×5, sacrifice on day 8) is given as “marked clinical signs”; in series [8] (single IV doses 10 and 30 mg/kg (200 and 600 mg/m^2)), “marked clinical signs”. The Tolerability result in series [8] (single IV doses 1 and 3 mg/kg, at least 21 days of observation) is reported as “well-tolerated”. Besides, the “White blood cell count” value in [9] (60 mg/kg, by day 4) is on record as “approximately 25 % of baseline”; in series [9] (80 mg/kg, by day 4), ~15 % of baseline; in series [9] (single IP dose 40 mg/kg (120 mg/m^2)), 50 % of baseline. Besides, in [9] (60-80 mg/kg), the WBC recovery result is “full recovery by day 21”. In addition, the Tumor response entry with human U251 glioma is on record as “complete regressions”. Moreover, the “Anti-tumor activity against intra-cranially implanted L1210 leukemia” value in series [10] (IP administration) is “Substantial anti-tumor activity”. For the same molecule, the “Crossing the blood brain barrier” value in series [10] (inferred from activity against intra-cranially implanted leukemia) was “good penetration through the blood-brain barrier; also recorded: effective in crossing the blood brain barrier”. The “Cell kill of leukemia cells implanted intracranially” value in [10] (leukemia cells implanted intracranially) was > 6.54 log cell kill. The “Delay of time to reach 1 gram” value in series [11] (20 mg/kg q4d×5 IP) is 14 days. The Clinical response result in [12] (220 mg/m^2, heavily pre-treated patient with AML) is reported as “substantial clearing of marrow blasts”; in series [12] (300 mg/m^2 single course, one previously untreated patient with high-risk myelodysplasia), “complete response by day 28”; in [12] (532 mg/M^2, patient with AML, by day 28) it was “reduction in marrow blasts”. Moreover, in series [12] (708 mg/m^2, one of seven patients), the “Duration of prolonged marrow aplasia” value is reported as > 80 days. The Peripheral blood blasts result in series [12] (all dose levels (220-708 mg/m^2)) is “reduced peripheral blood blasts at least transiently in most patients”. Moreover, in [12] (doses ≧400 mg/m2), the Infusion-related reaction result is listed as “transient infusion-related syndrome”.
`Nc1nc(F)nc2c1ncn2[C@@H]1O[C@H](CO)[C@@H](O)[C@@H]1O` [Fluda, Fludarabine, reference compound]: the “Long-term Survivors (%)” value with L1210 leukemia [7] (fludarabine 70 mg/kg ip multiple days between days 1 to 9) turned out to be 0%. Further, the “Time to death of all animals” value with L1210 leukemia [7] (fludarabine treatment control, 70 mg/kg ip) was ≤ 30 days.
